Measurements published in paper PMC12594208, “SLC25A45 is required for mitochondrial uptake of methylated amino acids and de novo carnitine biosynthesis” (Molecular Cell, 2025).

Experiments:
SLC25A45-8xHis [1] = target: T1, SLC25A45-8xHis (Homo sapiens, UniProt Q8N413); experiment: uptake by isolated mitochondria, LC-MS; type: biochemical; settings: 10 μM; pH 7.25, room temperature; labelled compound
T1 construct: SLC25A45-Xa-8xHis, tag kept; in mitochondria isolated from FreeStyle 293-F cells
T1 sequence (Q8N413 1-288): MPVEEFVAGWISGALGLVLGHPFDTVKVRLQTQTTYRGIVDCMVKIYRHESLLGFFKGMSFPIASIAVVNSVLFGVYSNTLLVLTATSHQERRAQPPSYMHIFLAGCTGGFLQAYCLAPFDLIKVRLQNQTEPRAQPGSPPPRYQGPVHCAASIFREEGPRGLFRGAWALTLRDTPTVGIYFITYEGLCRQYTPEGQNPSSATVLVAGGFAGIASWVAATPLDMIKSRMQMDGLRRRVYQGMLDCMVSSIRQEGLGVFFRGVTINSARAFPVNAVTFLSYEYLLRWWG

purified human SLC25A45 = target: T2, purified human SLC25A45 (Homo sapiens, UniProt Q8N413); experiment: nanoDSF thermostability shift; type: binding; settings: 10 mM compound, 20 mM HEPES pH 7.0, 50 mM NaCl, cardiolipin/LMNG, 25-95 °C at 4 °C per min
T2 construct: codon-optimised; N-terminal extension GKPRTSPK (residues 14-21 of human oxoglutarate carrier), eight-His tag and Factor Xa site, Factor Xa cleaved; from S. cerevisiae BJ2168 mitochondria; 33,118 Da; in lauryl maltose neopentyl glycol / tetraoleoyl cardiolipin
T2 sequence (Q8N413 1-288): T1 sequence (Q8N413 1-288)

SLC25A45-8xHis [2] = target: T1, SLC25A45-8xHis; experiment: competition of [2H9]-TML uptake by isolated mitochondria, LC-MS; type: biochemical; settings: 10 mM unlabelled TML against 10 μM [2H9]-TML, 10 min, pH 7.25, room temperature

With CN=C(NC)NCCC[C@H](N)C(=O)O [[^2H6]-SDMA] the “uptake by isolated mitochondria, LC-MS” value (SLC25A45-8xHis [1]) was “SLC25A45 was also required for the mitochondrial uptake of the deuterium-labeled dimethylarginine isomers”.
For CN(C)C(=N)NCCC[C@H](N)C(=O)O [[^2H6]-ADMA], the “uptake by isolated mitochondria, LC-MS” value (SLC25A45-8xHis [1]) was “SLC25A45 was also required for the mitochondrial uptake of the deuterium-labeled dimethylarginine isomers”.
For C[N+](C)(C)CCCC[C@H](N)C(=O)O [trimethyllysine], the ΔTm (purified human SLC25A45) was 3.4 °C and the “competition of [2H9]-TML uptake by isolated mitochondria, LC-MS” value (SLC25A45-8xHis [2]) was “mitochondrial import of [^2H9]-TML was abolished by co-incubation with excess unlabeled trimethyllysine”.
Compound dimethylarginine has a ΔTm (purified human SLC25A45; isomer not told) of 7.5 °C.
